In publication PMC8765048 (JCI Insight, 2022):
Read-outs that look alike come from different tables or passages of the source.

Legend:
[1] = tested on: SARS-CoV-2 B.1.617.2 (Delta); experiment: microbe, parasite or virus in culture; type: cell-based
[2] = tested on: SARS-CoV-2 B.1.427 (Epsilon); experiment: microbe, parasite or virus in culture; type: cell-based
SARS-CoV-2 WA1 = experiment: microbe, parasite or virus in culture; type: cell-based
[3] = tested on: SARS-CoV-2 B.1.617.2 (Delta); experiment: microbe, parasite or virus in culture; type: cell-based; remark: listed apart in the source
SARS-CoV-2 P.2 (Zeta) = experiment: microbe, parasite or virus in culture; type: cell-based
[4] = CellTiter-Glo cell viability assay; type: cell-based; conditions: human, A549 cells; A549, 72 h
[5] = CellTiter-Glo cell viability assay; type: cell-based; conditions: Primary human hepatocytes
KCNH2 (hERG) = target: T1, KCNH2 (hERG) (Homo sapiens, UniProt Q12809); experiment: Potassium channel inhibition testing (QPatch HTX electrophysiology); type: cell-based
T1 construct: expressed in transfected cells; host or cells: HEK293T
Excerpt: The KCNH2 (hERG) functions as the α subunit of a cardiac potassium channel. Its inhibition by drugs has been implicated in fatal ventricular tachyarrhythmia ([31]). As a predictor of cardiotoxicity and genotoxicity, we therefore evaluated KCNH2 (hERG) inhibition and genotoxicity in the AMES mutagenicity assay.
Ruling out inhibition of KCNH2 (hERG) by a novel compound is a mandatory step in establishing drug safety. The effect of sangivamycin on KCNH2-derived cardiac potassium channels was assessed using HEK293T cells and the QPatch HTX electrophysiology platform (Evotech), following the manufacturer’s instructions. Sangivamycin was tested at 6 concentrations (cumulative concentration response, high test concentration of 10 μM). The percentage change in potassium channel tail current was used to calculate channel inhibition.

CYP1A2 = target: T2, CYP1A2 (Homo sapiens, UniProt P05177); experiment: CYP inhibition testing, human liver microsomes; type: in vitro ADME
T2 construct: along with human liver microsomes (0.5 mg/mL) and cofactors; tissue Cyprotex (performed the assay); host or cells: human liver microsomes
Protocol: (§1) Sangivamycin was incubated by Cyprotex with a cocktail of model CYP substrates for CYP1A2, CYP2B6, CYP2C8, CYP2C9, CYP2C19, CYP2D6, CYP3A4, and CYP3A4, along with human liver microsomes (0.5 mg/mL) and cofactors (2.5 mM NADPH and 3.3 mM MgCl2), in 0.1 M phosphate buffer (pH 7.4) for 20 minutes at 37°C. Known CYP inhibitors were used in lieu of sangivamycin as positive controls: furafylin (1A2), thioTEPA (2B6), montelukast (2C8), sulfaphenazole (2C9), nootkatone (2C19), quinidine (2D6), and ketoconazole (3A4). Formation of substrate breakdown metabolites was measured by LC-MS/MS and compared with control incubation (incubation of substrates with microsomes and cofactors but in the absence of sangivamycin or in the presence of known inhibitors). CYP inhibition was measured as a decrease in the formation of expected metabolites in the presence of sangivamycin or control inhibitor (defined as a percentage of control).

CYP2B6 = target: T3, CYP2B6 (Homo sapiens, UniProt P20813); experiment: CYP inhibition testing, human liver microsomes; type: in vitro ADME
T3 construct: along with human liver microsomes (0.5 mg/mL) and cofactors; tissue Cyprotex (performed the assay); host or cells: human liver microsomes
Protocol: as §1

CYP2C19 = target: T4, CYP2C19 (Homo sapiens, UniProt P33261); experiment: CYP inhibition testing, human liver microsomes; type: in vitro ADME
T4 construct: along with human liver microsomes (0.5 mg/mL) and cofactors; tissue Cyprotex (performed the assay); host or cells: human liver microsomes
Protocol: as §1

CYP2C8 = target: T5, CYP2C8 (Homo sapiens, UniProt P10632); experiment: CYP inhibition testing, human liver microsomes; type: in vitro ADME
T5 construct: along with human liver microsomes (0.5 mg/mL) and cofactors; tissue Cyprotex (performed the assay); host or cells: human liver microsomes
Protocol: as §1

CYP2C9 = target: T6, CYP2C9 (Homo sapiens, UniProt P11712); experiment: CYP inhibition testing, human liver microsomes; type: in vitro ADME
T6 construct: along with human liver microsomes (0.5 mg/mL) and cofactors; tissue Cyprotex (performed the assay); host or cells: human liver microsomes
Protocol: as §1

CYP2D6 = target: T7, CYP2D6 (Homo sapiens, UniProt P10635); experiment: CYP inhibition testing, human liver microsomes; type: in vitro ADME
T7 construct: along with human liver microsomes (0.5 mg/mL) and cofactors; tissue Cyprotex (performed the assay); host or cells: human liver microsomes
Protocol: as §1

CYP3A4 = target: T8, CYP3A4 (Homo sapiens, UniProt P08684); experiment: CYP inhibition testing, human liver microsomes; type: in vitro ADME
T8 construct: along with human liver microsomes (0.5 mg/mL) and cofactors; tissue Cyprotex (performed the assay); host or cells: human liver microsomes
Protocol: as §1

[6] = Plasma protein binding assessment (equilibrium dialysis); type: in vitro ADME; conditions: 37°C
Protocol: The plasma protein binding assay was performed by Cyprotex to assess sangivamycin plasma protein binding. Equilibrium dialysis was used to determine the extent of binding of a compound to plasma proteins. A semipermeable membrane separated a protein-containing compartment (PC) from a protein-free compartment (PF). The system was set to equilibrate at 37°C. The test compound present in each compartment was then quantified by LC-MS/MS. The extent of binding is reported as a fraction unbound (fu) value, which is calculated as fu = 1 – ([PC – PF]/PC).

[7] = Metabolic stability testing, liver microsomes; type: in vitro ADME; conditions: pH 7.4, 0.5 mg/mL microsomes, NADPH
Protocol: To evaluate metabolic stability, sangivamycin was incubated by Cyprotex in duplicate with active and heat-inactivated human and CD-1 laboratory mouse liver microsomes (0.5 mg/mL) and cofactors (2.5 mM NADPH and 3.3 mM MgCl2) in 0.1 M phosphate buffer (pH 7.4) at 37°C. Aliquots were removed at 0, 15, 30, 60, 90, and 120 minutes, and the amount of drug remaining at each time point was determined by LC-MS/MS.

[8] = tested on: Lassa virus, Ebola virus, Marburg virus, cowpox virus and vaccinia virus; conditions: Vero E6 and Huh-7 cells; cited from earlier work
A549 (human lung) = experiment: CellTox Green Cytotoxicity Assay; conditions: ratio > 1 cytostatic, ≤ 1 cytotoxic
[9] = tested on: Calu-3 (human lung adenocarcinoma); experiment: CellTox Green Cytotoxicity Assay; conditions: ratio > 1 cytostatic, ≤ 1 cytotoxic
A549 cells = experiment: Phospholipidosis imaging (NBD-PE fluorescence); conditions: 24 h, sangivamycin up to 5 μM, melperone 10 μM, amiodarone positive control
[10] = Severe acute respiratory syndrome coronavirus 2, VeroE6/TMPRSS2, 18 h
[11] = Severe acute respiratory syndrome coronavirus 2, Vero C1008, 24 h
[12] = Severe acute respiratory syndrome coronavirus 2, Calu-3, 72 h
[13] = Severe acute respiratory syndrome coronavirus 2, Calu-3, 24 h

T1 sequence (Q12809 whole entry): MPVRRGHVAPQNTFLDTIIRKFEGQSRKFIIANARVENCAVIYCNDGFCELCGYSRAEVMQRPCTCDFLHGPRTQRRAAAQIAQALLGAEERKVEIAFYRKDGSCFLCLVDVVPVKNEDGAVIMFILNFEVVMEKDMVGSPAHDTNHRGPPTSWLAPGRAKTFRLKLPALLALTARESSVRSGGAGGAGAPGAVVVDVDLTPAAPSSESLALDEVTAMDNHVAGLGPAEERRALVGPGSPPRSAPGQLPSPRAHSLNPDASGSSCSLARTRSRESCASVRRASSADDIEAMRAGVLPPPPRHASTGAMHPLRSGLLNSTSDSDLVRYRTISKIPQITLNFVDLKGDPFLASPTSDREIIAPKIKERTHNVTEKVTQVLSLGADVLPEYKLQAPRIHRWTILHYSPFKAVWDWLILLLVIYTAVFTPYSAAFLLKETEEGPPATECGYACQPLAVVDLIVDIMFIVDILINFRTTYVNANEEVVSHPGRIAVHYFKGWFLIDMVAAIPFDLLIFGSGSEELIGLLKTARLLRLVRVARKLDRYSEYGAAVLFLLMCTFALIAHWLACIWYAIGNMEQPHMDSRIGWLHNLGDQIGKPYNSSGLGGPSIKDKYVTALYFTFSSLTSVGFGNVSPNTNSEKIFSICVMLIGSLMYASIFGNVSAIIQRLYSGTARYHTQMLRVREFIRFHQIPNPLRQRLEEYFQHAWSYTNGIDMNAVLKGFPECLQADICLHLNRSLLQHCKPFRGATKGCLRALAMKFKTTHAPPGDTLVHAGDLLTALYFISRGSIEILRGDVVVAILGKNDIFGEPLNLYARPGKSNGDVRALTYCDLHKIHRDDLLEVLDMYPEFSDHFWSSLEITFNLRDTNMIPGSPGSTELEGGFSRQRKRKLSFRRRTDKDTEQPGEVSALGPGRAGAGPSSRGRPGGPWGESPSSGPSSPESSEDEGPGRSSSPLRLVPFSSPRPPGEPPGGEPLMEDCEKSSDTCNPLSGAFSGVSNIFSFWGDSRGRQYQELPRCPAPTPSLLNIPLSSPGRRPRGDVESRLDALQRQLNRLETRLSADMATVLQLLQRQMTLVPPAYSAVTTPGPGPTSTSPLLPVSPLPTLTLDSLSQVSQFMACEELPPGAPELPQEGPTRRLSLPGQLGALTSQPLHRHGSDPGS
T6 sequence (P11712 whole entry): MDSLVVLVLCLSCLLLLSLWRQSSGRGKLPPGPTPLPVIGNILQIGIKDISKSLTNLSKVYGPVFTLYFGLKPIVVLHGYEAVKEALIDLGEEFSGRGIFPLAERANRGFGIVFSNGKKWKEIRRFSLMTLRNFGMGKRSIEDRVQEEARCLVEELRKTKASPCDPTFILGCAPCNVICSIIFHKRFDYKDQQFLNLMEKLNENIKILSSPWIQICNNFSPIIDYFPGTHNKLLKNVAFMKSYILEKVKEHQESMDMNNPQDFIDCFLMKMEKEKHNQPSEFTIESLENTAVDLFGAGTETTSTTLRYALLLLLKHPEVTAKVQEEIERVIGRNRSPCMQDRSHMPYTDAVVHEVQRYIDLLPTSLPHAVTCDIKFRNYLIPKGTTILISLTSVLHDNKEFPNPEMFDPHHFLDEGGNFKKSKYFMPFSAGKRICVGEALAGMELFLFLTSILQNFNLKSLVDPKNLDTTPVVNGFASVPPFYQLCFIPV
T7 sequence (P10635 whole entry): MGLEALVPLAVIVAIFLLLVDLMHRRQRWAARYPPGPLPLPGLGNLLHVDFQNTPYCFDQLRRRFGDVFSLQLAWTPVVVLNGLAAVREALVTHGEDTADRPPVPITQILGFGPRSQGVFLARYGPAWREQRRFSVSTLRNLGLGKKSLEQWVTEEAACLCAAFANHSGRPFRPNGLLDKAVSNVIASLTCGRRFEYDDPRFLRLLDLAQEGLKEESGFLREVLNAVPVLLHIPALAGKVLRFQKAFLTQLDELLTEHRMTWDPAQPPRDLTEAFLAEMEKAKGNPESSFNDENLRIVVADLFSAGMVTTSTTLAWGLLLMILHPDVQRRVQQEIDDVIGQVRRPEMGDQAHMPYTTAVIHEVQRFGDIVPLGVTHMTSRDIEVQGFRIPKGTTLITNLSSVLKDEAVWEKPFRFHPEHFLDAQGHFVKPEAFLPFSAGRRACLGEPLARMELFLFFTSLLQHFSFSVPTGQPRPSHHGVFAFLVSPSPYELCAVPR
T2 sequence (P05177 whole entry): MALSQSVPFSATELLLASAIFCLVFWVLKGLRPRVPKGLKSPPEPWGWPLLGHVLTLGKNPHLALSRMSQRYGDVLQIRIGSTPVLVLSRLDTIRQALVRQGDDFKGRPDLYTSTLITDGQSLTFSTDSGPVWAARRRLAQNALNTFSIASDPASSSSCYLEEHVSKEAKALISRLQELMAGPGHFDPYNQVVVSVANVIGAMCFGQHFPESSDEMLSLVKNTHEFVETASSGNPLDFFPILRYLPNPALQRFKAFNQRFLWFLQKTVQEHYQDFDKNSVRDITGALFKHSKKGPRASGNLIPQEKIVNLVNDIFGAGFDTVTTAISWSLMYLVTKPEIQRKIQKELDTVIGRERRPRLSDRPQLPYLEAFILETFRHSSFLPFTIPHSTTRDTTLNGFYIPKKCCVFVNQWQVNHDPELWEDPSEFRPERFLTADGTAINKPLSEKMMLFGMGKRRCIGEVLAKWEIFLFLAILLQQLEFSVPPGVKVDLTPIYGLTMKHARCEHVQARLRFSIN
T4 sequence (P33261 whole entry): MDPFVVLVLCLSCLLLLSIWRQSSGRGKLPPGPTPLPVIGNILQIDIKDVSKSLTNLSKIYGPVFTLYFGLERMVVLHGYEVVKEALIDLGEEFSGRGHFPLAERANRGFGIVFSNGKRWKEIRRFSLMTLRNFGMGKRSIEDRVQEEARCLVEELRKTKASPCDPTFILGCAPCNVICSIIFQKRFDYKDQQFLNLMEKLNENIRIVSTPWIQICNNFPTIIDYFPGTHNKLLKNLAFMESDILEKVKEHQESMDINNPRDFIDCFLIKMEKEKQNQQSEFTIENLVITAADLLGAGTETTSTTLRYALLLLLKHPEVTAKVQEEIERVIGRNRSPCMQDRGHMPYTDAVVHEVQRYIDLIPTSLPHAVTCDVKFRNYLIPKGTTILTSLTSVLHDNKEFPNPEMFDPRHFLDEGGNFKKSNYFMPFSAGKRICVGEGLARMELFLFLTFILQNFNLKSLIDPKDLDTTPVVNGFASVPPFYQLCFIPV
T8 sequence (P08684 whole entry): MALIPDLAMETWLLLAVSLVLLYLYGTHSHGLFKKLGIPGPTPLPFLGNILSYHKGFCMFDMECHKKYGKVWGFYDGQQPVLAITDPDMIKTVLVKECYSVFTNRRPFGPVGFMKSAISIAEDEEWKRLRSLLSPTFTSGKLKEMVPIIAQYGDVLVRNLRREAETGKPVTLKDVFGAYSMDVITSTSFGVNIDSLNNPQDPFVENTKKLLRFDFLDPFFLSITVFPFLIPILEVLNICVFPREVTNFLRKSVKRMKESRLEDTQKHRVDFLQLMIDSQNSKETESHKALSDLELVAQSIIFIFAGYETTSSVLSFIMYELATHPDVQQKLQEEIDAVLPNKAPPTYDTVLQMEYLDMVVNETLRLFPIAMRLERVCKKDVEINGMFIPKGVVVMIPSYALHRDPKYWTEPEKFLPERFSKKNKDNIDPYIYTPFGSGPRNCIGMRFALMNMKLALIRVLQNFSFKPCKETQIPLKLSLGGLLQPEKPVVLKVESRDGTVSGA
T3 sequence (P20813 whole entry): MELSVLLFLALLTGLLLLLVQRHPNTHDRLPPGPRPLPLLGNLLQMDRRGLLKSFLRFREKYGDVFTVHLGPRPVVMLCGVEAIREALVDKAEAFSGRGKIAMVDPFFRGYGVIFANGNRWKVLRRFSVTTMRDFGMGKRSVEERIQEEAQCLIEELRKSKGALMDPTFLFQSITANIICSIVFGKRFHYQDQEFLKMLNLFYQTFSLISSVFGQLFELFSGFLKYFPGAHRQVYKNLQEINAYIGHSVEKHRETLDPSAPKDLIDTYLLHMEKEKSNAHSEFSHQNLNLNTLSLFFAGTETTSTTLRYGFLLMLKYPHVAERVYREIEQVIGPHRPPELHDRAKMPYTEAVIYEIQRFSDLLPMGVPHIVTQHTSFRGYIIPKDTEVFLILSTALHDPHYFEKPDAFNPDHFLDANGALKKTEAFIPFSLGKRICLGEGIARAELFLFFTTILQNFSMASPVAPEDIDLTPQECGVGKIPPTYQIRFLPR
T5 sequence (P10632 whole entry): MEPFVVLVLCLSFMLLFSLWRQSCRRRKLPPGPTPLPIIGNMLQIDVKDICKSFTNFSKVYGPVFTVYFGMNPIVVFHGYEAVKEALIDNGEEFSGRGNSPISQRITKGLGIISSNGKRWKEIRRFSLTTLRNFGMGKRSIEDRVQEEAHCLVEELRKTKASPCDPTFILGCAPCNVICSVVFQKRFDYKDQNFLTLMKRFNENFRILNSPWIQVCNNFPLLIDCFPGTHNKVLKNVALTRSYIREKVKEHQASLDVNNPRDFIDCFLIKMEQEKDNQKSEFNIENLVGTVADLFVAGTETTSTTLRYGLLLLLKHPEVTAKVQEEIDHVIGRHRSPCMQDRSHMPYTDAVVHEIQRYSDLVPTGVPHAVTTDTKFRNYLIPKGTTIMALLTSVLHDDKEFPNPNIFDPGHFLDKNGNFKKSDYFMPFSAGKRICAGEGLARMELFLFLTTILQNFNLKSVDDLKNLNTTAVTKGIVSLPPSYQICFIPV

**Q.** For `NC(=O)c1cn([C@@H]2O[C@H](CO)[C@@H](O)[C@H]2O)c2ncnc(N)c12` [Sangivamycin, sangivamycin], which IC50 [1] is on record?
**A.** 80.4 nM

**Q.** What about the “SI (selectivity index, CC50/IC50)” value ([1]; B.1.617.2 (Delta), Vero E6/TMPRSS2 cells) of the same molecule?
**A.** >7.5

**Q.** And the IC50 [1, 10]?
**A.** 80 nM

**Q.** And the IC90 [1, 10]?
**A.** 263 nM

**Q.** What about the “SI (selectivity index, CC50/IC50)” value ([2]; B.1.427 (Epsilon), Vero E6 cells) of the same molecule?
**A.** >32.3

**Q.** What about the IC50 [2, 11] of the same molecule?
**A.** 18.6 nM

**Q.** What about the IC90 [2, 11] of the same molecule?
**A.** 212 nM

**Q.** And the IC50 (SARS-CoV-2 WA1; [12])?
**A.** 61 ± 8 nM

**Q.** And the IC90 (SARS-CoV-2 WA1; [12])?
**A.** 190 ± 23 nM

**Q.** What about the “SI (selectivity index, CC50/IC50)” value (SARS-CoV-2 WA1; WA1, Calu-3 cells) of the same molecule?
**A.** 5.3

**Q.** What about the “SI (selectivity index, CC50/IC50)” value ([3]; B.1.617.2 (Delta), Calu-3 cells) of the same molecule?
**A.** >7.6

**Q.** And the IC50 [3, 13]?
**A.** 79 nM

**Q.** What about the IC90 [3, 13] of the same molecule?
**A.** 290 nM

**Q.** What about the “SI (selectivity index, CC50/IC50)” value (SARS-CoV-2 P.2 (Zeta); P.2 (Zeta), Calu-3 cells) of the same molecule?
**A.** >15.2

**Q.** What about the IC50 (SARS-CoV-2 P.2 (Zeta); [13]) of the same molecule?
**A.** 39.6 nM

**Q.** What about the IC90 (SARS-CoV-2 P.2 (Zeta); [13]) of the same molecule?
**A.** 122 nM

**Q.** What about the CC50 at 72 h [4] of the same molecule?
**A.** 173 nM

**Q.** And the CC50 at 72 h [5]?
**A.** 439 nM

**Q.** And the IC50 (KCNH2 (hERG))?
**A.** > 10000 nM

**Q.** And the “effect on the KCNH2 (hERG)” value (KCNH2 (hERG); 10 μM)?
**A.** had no effect

**Q.** What about the IC50 (CYP1A2) of the same molecule?
**A.** > 100000 nM

**Q.** And the IC50 (CYP2B6)?
**A.** > 100000 nM

**Q.** What about the IC50 (CYP2C19) of the same molecule?
**A.** > 100000 nM

**Q.** And the IC50 (CYP2C8)?
**A.** > 100000 nM

**Q.** And the IC50 (CYP2C9)?
**A.** > 100000 nM

**Q.** And the IC50 (CYP2D6)?
**A.** > 100000 nM

**Q.** What about the IC50 (CYP3A4) of the same molecule?
**A.** > 100000 nM

**Q.** What about the fraction unbound ([6]; human) of the same molecule?
**A.** 0.83

**Q.** And the fraction unbound ([6]; mouse)?
**A.** 0.879

**Q.** And the remaining at 2 h, 5 μM ([7]; CD-1, mouse, read-out: Mouse liver microsome stability (% remaining at 120 min))?
**A.** 100%

**Q.** What about the remaining at 2 h, 5 μM ([7]; human, read-out: Human liver microsome stability (% remaining at 120 min)) of the same molecule?
**A.** 100%

**Q.** And the IC50 [8]?
**A.** nanomolar range

**Q.** What about the “Ratio CellTox Green/CellTiter-Glo” value (A549 (human lung)) of the same molecule?
**A.** >28.9

**Q.** And the “Ratio CellTox Green/CellTiter-Glo” value [9]?
**A.** >15.5

**Q.** What about the “NBD-PE fluorescence (phospholipidosis)” value (A549 cells) of the same molecule?
**A.** no significant NBD-PE fluorescence above the DMSO control baseline
